Test [1] deals with ROS content of wild type (SC5314) cells. Put plainly: DCFDA detectable ROS measurement. The format is cell-based, Candida albicans. The note with it: wild type cells unexposed to external oxidative stressors; 500 microM foscarnet or 1 mM PAA, 1 hour; FIG. 20C. The method, then: FIGS. 20A-20D depict data showing that TORC1 activity contributes to ROS management and Sod3 expression. FIG. 20A depicts dichlorodihydrofluorescein diacetate (DCFDA) detectable ROS measurement of strains, (1) PHO84/PHO84 containing vector (JKC1594), (2) pho84/pho84 containing vector (JKC1598), (3) PHO84/PHO84 overexpressing GTR1 (JKC1596), (4) pho84/pho84 overexpressing GTR1 (JKC1600). Cells cultured overnight in YPD were diluted into SC medium (Loflo) with vehicle or 8 ng/ml rapamycin for 1 hour, and fluorescence intensity was determined at excitation-485 nm and emission wavelength 528 nm after staining cells with 50 μM DCFDA. p=0.0252 for ratio of pho84−/− with vector and pho84−/− overexpressing GTR1 versus ratio of wild type with vector and wild type overexpressing GTR1; all cells exposed to vehicle. p=0.0014 for ratio of pho84−/− with vector and pho84−/− overexpressing GTR1 versus ratio of wild type with vector and wild type overexpressing GTR1; all cells exposed to rapamycin. p values calculated using Student's t-test. […] In FIG. 20C, wild type (SC5314) cells were exposed to vehicle, 500 microM foscarnet or 1 mM PAA for 1 hour, and fluorescence intensity was determined at excitation-485 nm and emission wavelength 528 nm after staining cells with 50 μM DCFH-DA. p<0.001 for both 500 microM foscarnet versus vehicle and 1 mM PAA versus vehicle. […]

The test system of test [2] is C. albicans wild type (SC5314). Put plainly: Potentiation of antifungals, growth curves (OD600) in SC with 0.5 mM KH2PO4. Type of test: cell-based, Candida albicans. Particulars: 500 μM Fos plus 0.2 μg/ml amphotericin B; 8 mM PAA plus 0.25 μg/ml amphotericin B; 30° C.; FIG. 4C, 10D. Here is the method:
FIGS. 4A-4D depict data showing that small-molecule inhibition of Pho84 represses TORC1 and hyphal morphogenesis, and potentiates amphotericin B and micafungin antifungal activity. FIG. 4A depicts a Western blot of wild type (wt) (SC5314) cells with (1) vehicle, (2) 100 μM foscarnet (Fos), (3) 200 μM Fos, (4) 400 μM Fos, and strains (5, 7, 9, 11) PHO84+/+(JKC915), (6, 8) pho84−/+ (JKC1583) and (10, 12) pho84−/− (JKC1450), grown in standard SC (7.3 mM Pi) for 60 min, probed for P-S6 and tubulin. […] FIG. 4C depicts Wt (SC5314) exposed to vehicle, 500 μM Fos, 0.2 μg/ml amphotericin B, and amphotericin B plus Fos; OD600 in SC with 0.5 mM KH2PO4 at 30° C. monitored every 15 minutes. FIG. 4D depicts Wt (SC5314) exposed to vehicle, 500 μM Fos, 25 ng/ml micafungin, and micafungin plus Fos; OD600 in SC with 0.5 mM KH2PO4 at 30° C. monitored every 15 minutes.
FIGS. 10A-10D depict data showing that Foscarnet inhibits Pho84 in competition with Pi. Wild type PHO84/PHO84 (+/+, dark blue) (JKC915) and pho84/pho84 null (−/−, light blue) (JKC1450) cells were exposed to 1 and 4 mM PAA (FIG. 10A) or 200 and 400 μM foscarnet (FIG. 10B), and growth in SC medium with 0.22 mM or 11 mM KH2PO4 at 30° C. was monitored automatically every 15 minutes. […] OD600 was monitored automatically every 15 minutes. […]

The subject of test [3] is C. albicans wild type PHO84/PHO84 and pho84/pho84 null cells. Put plainly: Growth curves in liquid SC medium (OD600) during exposure to Pho84 inhibitors. Type of test: cell-based, Candida albicans. The note with it: wild type vs pho84−/− null; 1 and 4 mM PAA or 200 and 400 μM foscarnet; SC with 0.22 or 11 mM KH2PO4, 30° C.; FIG. 10A, B. The method, then: FIGS. 10A-10D depict data showing that Foscarnet inhibits Pho84 in competition with Pi. Wild type PHO84/PHO84 (+/+, dark blue) (JKC915) and pho84/pho84 null (−/−, light blue) (JKC1450) cells were exposed to 1 and 4 mM PAA (FIG. 10A) or 200 and 400 μM foscarnet (FIG. 10B), and growth in SC medium with 0.22 mM or 11 mM KH2PO4 at 30° C. was monitored automatically every 15 minutes. FIGS. 10A and 10B are representative of 3 biological replicates; error bars show SD. FIG. 10C depicts a filamentation assay: in order to maximize reproducibility between replicate experiments, cells of wild type strain SC5314 were suspended in 0.9% NaCl to an OD600 of 0.1; then 3 μl of the suspension was spotted at equidistant points, using a template, around a Spider agar plate containing vehicle or 500 μM foscarnet. Spot edges were imaged to show the length and density of filaments extending from the edge of the spot into the agar medium. Scale bar 1 mm. […] OD600 was monitored automatically every 15 minutes. […]
For cell dilutions spotted onto agar media as previously described (20), saturated overnight cultures were diluted in 5-fold steps from an OD600 of 0.5. […] For growth assays including those during drug exposure, OD600 readings were obtained every 15 min in a plate reader and standard deviations of 3 technical replicates were calculated and graphed in Graphpad Prism. […]

Test [4] has as its system human peripheral blood derived neutrophils incubated with C. albicans. The format is cell-based. The note with it: neutrophils pretreated with different concentrations of NAC (up to 10 mM); 90 min, M.O.I. 2; dose-dependent; FIG. 12D.
Experimental: To examine whether in fact ROS are responsible for pho84−/− null cells' increased susceptibility to neutrophils' cidal activity, Candida-ingesting neutrophils were treated with the ROS-scavenging compound N-acetyl cysteine (NAC).
For test [5], the system named is TORC1 (Rps6 phosphorylation). Put plainly: Western blot for phosphorylated ribosomal protein S6 (P-S6) as readout of TORC1 activity. The format is cell-based, Candida albicans. The note with it: FIG. 4A. Here is the method:
FIGS. 4A-4D depict data showing that small-molecule inhibition of Pho84 represses TORC1 and hyphal morphogenesis, and potentiates amphotericin B and micafungin antifungal activity. FIG. 4A depicts a Western blot of wild type (wt) (SC5314) cells with (1) vehicle, (2) 100 μM foscarnet (Fos), (3) 200 μM Fos, (4) 400 μM Fos, and strains (5, 7, 9, 11) PHO84+/+(JKC915), (6, 8) pho84−/+ (JKC1583) and (10, 12) pho84−/− (JKC1450), grown in standard SC (7.3 mM Pi) for 60 min, probed for P-S6 and tubulin. FIG. 4B depicts Wt (SC5314) spotted at equidistant points around RPMI agar (0.22 mM KH2PO4, pH 7) containing vehicle, 8 mM phosphonoacetic acid (PAA), or 500 μM Fos, grown at 37° C., and spot edges imaged. Compare with FIG. 7A. Bar 1 mm. FIG. 4C depicts Wt (SC5314) exposed to vehicle, 500 μM Fos, 0.2 μg/ml amphotericin B, and amphotericin B plus Fos; OD600 in SC with 0.5 mM KH2PO4 at 30° C. monitored every 15 minutes. FIG. 4D depicts Wt (SC5314) exposed to vehicle, 500 μM Fos, 25 ng/ml micafungin, and micafungin plus Fos; OD600 in SC with 0.5 mM KH2PO4 at 30° C. monitored every 15 minutes.
Cell harvesting, lysis, Western blotting and densitometry were performed as described in Chowdhury T & Köhler JR (2015) Ribosomal protein S6 phosphorylation is controlled by TOR and modulated by PKA in Candida albicans. Molecular Microbiology 98(2):384-402. At least three biological replicates were obtained for each experiment shown.
(Immunoblotting shows a protein as a band on a membrane.)

Test [6] has as its system C. albicans wild type, pho84−/− null and reintegrant cells. Put plainly: Growth in YPD with oxidative stressors (OD600). Particulars: 25 μM plumbagin, 40 μM menadione, 40 mM H2O2, FIG. 16A. Type of test: cell-based, Candida albicans. The method, then:
FIGS. 16A and 16B depict data showing that resistance to oxidative stressors is decreased, and Hog1 phosphorylation is increased in cells lacking PHO84. In FIG. 16A, overnight cultures were washed with normal saline and diluted to YPD with vehicle, 25 μM plumbagin, 40 μM menadione, and 40 mM H2O2 to OD600 0.1. OD600 was monitored every 15 minutes for strains +/+ (PHO84/PHO84), JKC915; −/− (pho84/pho84), JKC1450 and −/−/+(pho84/pho84::PHO84), JKC1588. FIG. 16B depicts a Western blot of cells incubated in YPD containing 5 mM H2O2 for 5 min, 10 min, 20 min, 30 min and 40 min. The membrane was probed for P-Hog1, total Hog1, and loading controls PSTAIRE and Histone H3. Strains, +/+ (PHO84/PHO84), JKC915; −/− (pho84/pho84), JKC1450 and −/−/+ (pho84/pho84::PHO84), JKC1588. FIGS. 16A and 16B show representatives of at least 3 biological replicates.
For cell dilutions spotted onto agar media as previously described (20), saturated overnight cultures were diluted in 5-fold steps from an OD600 of 0.5. For growth curves in liquid media, saturated overnight cultures in YPD were washed once in 0.9% NaCl and diluted to an OD600 of 0.15 in 150 μl medium in flat bottom 96-well dishes. For growth assays including those during drug exposure, OD600 readings were obtained every 15 min in a plate reader and standard deviations of 3 technical replicates were calculated and graphed in Graphpad Prism. Growth during drug exposure was assayed in SC medium. Vehicle for Pho84 inhibitors PAA (Sigma, 284270) and Fos (Santa Cruz Biotechnology, # SC-253593A) was water and for amphotericin B (Sigma, A9528), DMSO. All panels shown represent at least 3 biological replicates.

As to `O=C(O)CP(=O)(O)O` [PAA, phosphonoacetic acid], in test [1], the “ROS content (DCFDA detectable)” value is listed as “increased the ROS content of wild type cells”. Besides, the “Potentiation of amphotericin B antifungal activity” value in test [2] is “potentiate activity of the antifungal amphotericin B”. Also, the “C. albicans growth inhibition in dependence on Pho84” value in test [3] is recorded as “inhibit C. albicans growth in dependence on the presence of their target Pho84”.

Regarding `CC(=O)N[C@@H](CS)C(=O)O` [NAC, N-acetyl cysteine], the “Hypersensitivity of pho84−/− null cells to neutrophil killing” value in test [4] was “rescued hypersensitivity of pho84−/− null cells to neutrophil killing”.

In the case of `O=C(O)P(=O)(O)O` [Fos, phosphonoformic acid], the “ROS content (DCFDA detectable)” value in test [1] is on record as “increased the ROS content of wild type cells”. Besides, the “Potentiation of amphotericin B antifungal activity” value in test [2] was “potentiate activity of the antifungal amphotericin B”. For the same molecule, the “C. albicans growth inhibition in dependence on Pho84” value in test [3] is “inhibit C. albicans growth in dependence on the presence of their target Pho84”. Besides, the “Rps6 phosphorylation (P-S6)” value is reported as “P-S6 was hypersensitive to Fos” in test [5] (heterozygous pho84−/+ cells (JKC1583)); “did not further decrease the P-S6 signal” in test [5] (pho84−/− cells lacking the target (JKC1450)); “inhibited Rps6 phosphorylation (PS6) in a dose-dependent manner” in test [5] (wild type (SC5314) cells, 100, 200, 400 μM Fos, SC (7.3 mM Pi), 60 min).

Consider `CC1=CC(=O)c2c(O)cccc2C1=O` [plumbagin], for which the “Growth inhibition of pho84−/− null mutant compared with wild type” value (shortened to “Growth inhibition … compared with wild type”) in test [6] is reported as “inhibited growth of the mutant more strongly than that of the wild type”.

For the molecule `CC1=CC(=O)c2ccccc2C1=O` [menadione], the “Growth inhibition … compared with wild type” value in test [6] is recorded as “inhibited growth of the mutant more strongly than that of the wild type”.

For `OO` [H2O2, hydrogen peroxide], the “Growth inhibition … compared with wild type” value in test [6] was “inhibited growth of the mutant more strongly than that of the wild type”.
